Experimental findings from ChEMBL document CHEMBL4251597, “Discovery and evolution of aloperine derivatives as a new family of HCV inhibitors with novel mechanism” (Eur J Med Chem, 2018) are described below.

The CC50 is the concentration at which the toxic effect on the cells reaches its halfway point. For orientation: EC50 means the concentration giving half of the maximal effect.

Molecules are shown by their SMILES. Calls of active or inactive are those of the source. The rule behind the calls is not given here.

For data set [1], the system named is Hepatitis C virus. As to the kind of experiment: Antiviral activity against HCV infected in human GS4.3 cells assessed as inhibition of viral core protein levels at 0.8 uM treated with fresh media containing compound every 2 days measured after 6 days by Western blot method. The format is functional, organism-based. The following applies: Hepacivirus hominis. Background: Immunoblotting shows a protein as a band on a membrane.

Data set [2] relates to Hepatitis C virus. The experiment in a line: Antiviral activity against HCV J6/JFH/JC-1 infected in human Huh7.5 cells harboring […] S282T mutant assessed as inhibition of viral core protein levels at 0.01 to 1 uM treated with fresh media containing compound every 2 days by Western blot method. The format is functional, organism-based. The settings on record: Hepacivirus hominis.

The test system of data set [3] is Hepatitis C virus. As to the kind of experiment: Antiviral activity against HCV J6/JFH/JC-1 infected in human Huh7.5 cells assessed as inhibition of NS3/4A S282T mutant levels at 0.01 to 1 uM treated with fresh media containing compound every 2 days by Western blot method. The format is functional, organism-based. The settings on record: Hepacivirus hominis.
For data set [4], the system named is Hepatitis C virus. As to the kind of experiment: Antiviral activity against 22.5 to 90 IU/cell of HCV J6/JFH/JC-1 infected in human Huh7.5 cells assessed as inhibition of viral core protein levels at 0.05 uM treated with fresh media containing compound every 2 days by Western blot method. The format is functional, organism-based. The following applies: Hepacivirus hominis.

Data set [5] relates to Hepatitis C virus. As to the kind of experiment: Antiviral activity against 22.5 to 90 IU/cell of HCV J6/JFH/JC-1 infected in human Huh7.5 cells assessed as inhibition of NS3/4A levels at 0.05 uM treated with fresh media containing compound every 2 days by Western blot method. The format is functional, organism-based. The following applies: Hepacivirus hominis.
Data set [6] deals with Hepatitis C virus. The experiment in a line: Antiviral activity against HCV infected in human GS4.3 cells assessed as inhibition of NS3/4A levels at 0.8 uM treated with fresh media containing compound every 2 days measured after 6 days by Western blot method. The format is functional, organism-based. The following applies: Hepacivirus hominis.
Data set [7] concerns Hepatitis C virus. As to the kind of experiment: Antiviral activity against HCV J6/JFH/JC-1 infected in human Huh7.5 cells assessed as inhibition of NS3/4A levels at 0.05 uM preincubated for 2 hrs followed by centrifugation for 4 hrs and subsequent addition of Huh7.5 cells measured within 72 hrs by Western blot method. The format is functional, organism-based. The settings on record: Hepacivirus hominis.

Data set [8] in a line: Selectivity index, ratio of CC50 for human Huh7.5 cells to EC50 for HCV J6/JFH/JC-1. The settings on record: read-out: Ratio CC50/EC50. The format is toxicity.
A short description of data set [9]: Cytotoxicity against human Huh7.5 cells after 72 hrs by MTT assay. The format is cell-based. (In general: Tetrazolium dyes change colour on reduction, which living cells bring about.)
The test system of data set [10] is Hepatitis C virus. As to the kind of experiment: Antiviral activity against HCV infected in human GS4.3 cells assessed as inhibition of viral core protein levels at 0.5 uM treated with fresh media containing compound every 2 days measured after 6 days by Western blot method. The format is functional, organism-based. The settings on record: Hepacivirus hominis.

For data set [11], the system named is Hepatitis C virus. As to the kind of experiment: Antiviral activity against HCV J6/JFH/JC-1 infected in human Huh7.5 cells assessed as inhibition of NS3/4A levels at 0.05 uM preincubated for 2 hrs followed addition of Huh7.5 cells for 4 hrs measured within 72 hrs by Western blot method. The settings on record: Hepacivirus hominis. The format is functional, organism-based.

The subject of data set [12] is Hepatitis C virus. The experiment in a line: Antiviral activity against HCV J6/JFH/JC-1 infected in human Huh7.5 cells assessed as inhibition of viral core protein levels at 0.5 uM by Western blot method. The following applies: Hepacivirus hominis, TDE = time-dependent effect. The format is functional, organism-based.
The test system of data set [13] is Hepatitis C virus. As to the kind of experiment: Antiviral activity against HCV J6/JFH/JC-1 infected in human Huh7.5 cells assessed as inhibition of viral core protein levels at 0.05 uM preincubated for 2 hrs followed addition of Huh7.5 cells for 4 hrs measured within 72 hrs by Western blot method. The format is functional, organism-based. The settings on record: Hepacivirus hominis.

In data set [14] the test system is Hepatitis C virus. As to the kind of experiment: Antiviral activity against HCV infected in human GS4.3 cells assessed as inhibition of NS3/4A levels at 0.5 uM treated with fresh media containing compound every 2 days measured after 6 days by Western blot method. The format is functional, organism-based. The following applies: Hepacivirus hominis.
Data set [15] relates to Hepatitis C virus. As to the kind of experiment: Antiviral activity against HCV J6/JFH/JC-1 infected in human Huh7.5 cells assessed as inhibition of viral core protein levels at 0.05 uM preincubated for 2 hrs followed by centrifugation for 4 hrs and subsequent addition of Huh7.5 cells measured within 72 hrs by Western blot method. The format is functional, organism-based. The settings on record: Hepacivirus hominis.

In data set [16] the test system is Hepatitis C virus. As to the kind of experiment: Antiviral activity against HCV J6/JFH/JC-1 infected in human Huh7.5 cells assessed as inhibition of NS3/4A protein levels at 0.5 uM by Western blot method. The format is functional, organism-based. The settings on record: Hepacivirus hominis, TDE = time-dependent effect.
The subject of data set [17] is Hepatitis C virus. As to the kind of experiment: Antiviral activity against HCV J6/JFH/JC-1 infected in human Huh7.5 cells assessed as inhibition of viral RNA replication after 72 hrs by qRT-PCR method. The format is functional, organism-based, Hepacivirus hominis. The following applies: J6/JFH/JC-1, Huh7.5, 72 h.
Data set [18] concerns Hepatitis C virus. The experiment in a line: Antiviral activity against HCV J6/JFH/JC-1 infected in human Huh7.5 cells assessed as inhibition of NS3/4A A156T mutant levels at 0.01 to 1 uM treated with fresh media containing compound every 2 days by Western blot method. The following applies: Hepacivirus hominis. The format is functional, organism-based.
Data set [19] deals with Hepatitis C virus. As to the kind of experiment: Antiviral activity against HCV J6/JFH/JC-1 infected in human Huh7.5 cells harboring NS3/4A A156T mutant assessed as inhibition of viral core protein levels at 0.01 to 1 uM treated with fresh media containing compound every 2 days by Western blot method. The format is functional, organism-based. The following applies: Hepacivirus hominis.

Consider `CC(C)OC(=O)[C@H](C)NP(=O)(OC[C@H]1O[C@@H](n2ccc(=O)[nH]c2=O)[C@](C)(F)[C@@H]1O)Oc1ccccc1` (some centres undefined), for which the inhibition result in data set [1] and in data set [6] was “Active” each time. For the same compound, the inhibition entry in [2], in [3], in [4] and in data set [5] was “inactive” throughout.
As for `CCC[C@H](NC(=O)[C@@H]1[C@H]2CCC[C@H]2CN1C(=O)[C@@H](NC(=O)[C@@H](NC(=O)c1cnccn1)C1CCCCC1)C(C)(C)C)C(=O)C(=O)NC1CC1` [TELAPREVIR], the inhibition entry in [7], in [15], in data set [18] and in [19] was “inactive” in each case. In addition, in data set [8], the selectivity ratio was determined as 840. The same compound came in with a CC50 at 72 h in data set [9] of 25.2 µM. For the same compound, the inhibition result in data set [10], in [11], in data set [13] and in data set [14] was “Active” each time. For the same compound, the inhibition result in [12] and in data set [16] was “Tde” each time. Also, the 50% effective concentration (EC50) in data set [17] stood at 0.03 µM.
